Results reported in patent publication US20090093423A2, “NOVEL 2-SUBSTITUTED METHYL PENAM DERIVATIVES” (Orchid Chemicals and Pharmaceuticals Limited, priority 2006, published 2009).

Experiments:
[1] = test system: strains resistant to Fluoroquinolones; conditions: Kriengkauykiat et al. 2005; cited from earlier work
[2] = test system: A. baumani MRO 14515; assay: MIC, Agar Dilution Method, resistant clinical isolate; format: cell-based
Method: (§1) The novel compounds were tested for the in vitro antibacterial activities by the Agar Dilution Method as specified in documents published by NCCLS, now CLSI, USA. (National Committee for Clinical Laboratory Standards (NCCLS). 2003. Approved standard M7-A6. NCCLS, Villanova, Pa.).
(§2) Tazo was also dissolved in same buffer to get a solution of, e.g., 1 mg/mL. Novel penam derivatives described herein were dissolved in water to get a solution of, e.g., 1 mg/mL.
(§3) The novel compounds and Tazo were also tested individually. The bacterial inoculum was prepared by picking 3 to 5 well-isolated bacterial colonies with the same morphological appearance from an 18-24 h old culture and adjusting the turbidity of the saline suspension to 0.5 McFarland Turbidity Standard equivalent to a bacterial population of 1.5×10^8 colony forming units (CFU) per mL of suspension. The suspension was diluted 1:10 in saline (i.e. 0.5 mL suspension+4.5 mL saline) to get a bacterial population of 1.5×10^7 CFU/mL as inoculum. […] The inoculated petridishes were incubated at 35° C. in an ambient atmosphere for 16-20 h.

[3] = test system: A. baumani MRO 14514; assay: as above; format: cell-based
Method: as §1, §2, §3

[4] = test system: A. baumani MRO 14512; assay: as above; format: cell-based
Method: as §1, §2, §3

[5] = test system: E. coli MRO 10135; assay: as above; format: cell-based
Method: as §1, §2, §3

[6] = target: Penicillinase enzyme; assay: β-Lactamase assay (Centa substrate); format: biochemical; conditions: FIG. 1
Method: Representative novel compounds were subjected to β-lactamase assay to determine and compare their IC50 with that of Tazo as described elsewhere (Bebrone et. al, 2001, Antimicrob. Agents. Chemother. 45(6): 1868-1871; Jamieson et. al, 2003, Antimicrob. Agents. Chemother. 47(5): 1652-1657). Briefly enzyme inhibition assays with Tazo acid as the standard inhibitor for % inhibitions & IC50 value with optimized concentrations of Penicillinase enzyme & Centa β-lactamase substrate were performed.

Row | Compound | IC50 compared with Tazo [6] | other results
1 | CC(C)(O/N=C(\C(=O)N[C@@H]1C(=O)N2C(C(=O)[O-])=C(C[n+]3ccccc3)CS[C@H]12)c1csc(N)n1)C(=O)O [Ceftazidime] | – | cross-resistance of strains resistant to Fluoroquinolones [1]: 76%; MIC (antibiotic alone) [2]: >64 µg/mL; MIC (antibiotic alone) [3]: >64 µg/mL; MIC (antibiotic alone) [4]: >64 µg/mL; MIC (antibiotic alone) [5]: >64 µg/mL
2 | CC[n+]1ccn(C[C@@]2(C)[C@H](C(=O)[O-])N3C(=O)C[C@H]3S2(=O)=O)n1 [Example 2, 1-{[(2S,3S,5R)-2-Carboxy-3-methyl-4,4,7-trioxo-4-thia-1-azabicyclo[3.2.0]hept-3-yl]methyl}-3-ethyl-1H-1,2,3-triazol-3-ium] | three-fold lower | –
3 | CCC[n+]1ccn(C[C@@]2(C)[C@H](C(=O)[O-])N3C(=O)C[C@H]3S2(=O)=O)n1 [Example 3, 1-{[(2S,3S,5R)-2-Carboxy-3-methyl-4,4,7-trioxo-4-thia-1-azabicyclo[3.2.0]hept-3-yl]methyl}-3-n-propyl-1H-1,2,3-triazol-3-ium] | comparatively lower | –
4 | C=CC[n+]1ccn(C[C@@]2(C)[C@H](C(=O)[O-])N3C(=O)C[C@H]3S2(=O)=O)n1 [Example 4, 1-{[(2S,3S,5R)-2-Carboxy-3-methyl-4,4,7-trioxo-4-thia-1-azabicyclo[3.2.0]hept-3-yl]methyl}-3-allyl-1H-1,2,3-triazol-3-ium] | comparatively lower | –
5 | C[C@]1(Cn2cc[n+](CC(N)=O)n2)[C@H](C(=O)[O-])N2C(=O)C[C@H]2S1(=O)=O [Example 5, 1-{[(2S,3S,5R)-2-Carboxy-3-methyl-4,4,7-trioxo-4-thia-1-azabicyclo[3.2.0]hept-3-yl]methyl}-3-(2-amino-2-oxoethyl)-1H-1,2,3-triazol-3-ium] | comparatively lower | –
6 | C[C@]1(Cn2cc[n+](CC(=O)N3CCOCC3)n2)[C@H](C(=O)[O-])N2C(=O)C[C@H]2S1(=O)=O [Example 7, 1-{[(2S,3S,5R)-2-Carboxy-3-methyl-4,4,7-trioxo-4-thia-1-azabicyclo[3.2.0]hept-3-yl]methyl}-3-(2-morpholin-4-yl-2-oxoethyl)-1H-1,2,3-triazol-3-ium] | comparatively lower | –
